The source of these data is paper PMC7225193, “An Integrated Dialysis Pharmacometric (IDP) Model to Evaluate the Pharmacokinetics in Patients Undergoing Renal Replacement Therapy” (Pharmaceutical Research, 2020).

Series [1] can be described thus: In vitro RRT study of teicoplanin in bovine blood, evaluated with the IDP model. The format is in vitro ADME. The procedure: For all population pharmacokinetic modelling work in this study, NONMEM® (ICON development service, Gaithersburg, MD, version 7.4) was used. The inter-individual variability of the pharmacokinetic parameters was assumed to be log-normally distributed. For the intra-individual, residual variability an additive, proportional or combined error model was used. In the clinical data examples, models were evaluated by graphical and numerical criteria (goodness of fit plots, visual predictive checks and drop in objective function value (dOFV)). The LLP-SIR (log-likelihood-profiling based sampling-importance-resampling) method was employed for the assessment of parameter uncertainty, since a small number of subjects or cases was investigated.
An in vitro study investigating RRT of teicoplanin in bovine blood was evaluated using the IDP model. 51 pre-filter plasma samples and 45 post-filter plasma samples were included. 45 effluent samples were collected which were all below the lower limit of quantification (5 mg/L), which was considered in the analyses by comparison to simulations after estimation. A blood concentration of 25 mg/L using a volume of 2.2–2.5 L was studied. The blood flow rate was set to 250 mL/min and the dialysate flow rate to 500 mL/min without filtration. In five experiments, a polysulphone membrane (n = 3: FX80, Fresenius Medical Company, Austria, n = 2: F60 S, Fresenius Medical Company, Austria), and in one experiment a triacetate membrane (Ni 21 e, Surflux-21E, Nipro Corporation, Japan) was used. The IDP model was used to describe the RRT clearance and adsorption to the dialysis membranes was evaluated.

For series [2] the following is noted: patients with normal serum albumin concentrations; cited from earlier work. An excerpt: Protein binding plays an important role when the RRT clearance is only estimated based on drug characteristics, since it is assumed that only unbound drug can be dialyzed or filtrated. The integrated model allows direct assessment of the RRT clearance without assumptions on the efficacy in dialysis and filtration processes based on the unbound fraction. Moreover, elimination processes, that are independent of dialysis and filtration, e.g. adsorption to the dialysis membrane, can be quantified. RRT clearance of highly protein bound drugs, e.g. teicoplanin presenting a protein binding of >90% in ...

The conditions of series [3]: cited from earlier work.

Turning to teicoplanin, the CLRRT in series [1] (bovine blood, 25 mg/L, blood flow 250 mL/min, dialysate flow 500 mL/min, no filtration, IDP model) is 76.5 mL/min. Moreover, in series [1] (bovine blood, IDP model), the “FractionAdsorbed (fraction of the RRT clearance mediated via adsorption)” value was found to be 0.891. The compound also showed an RRT clearance in series [1] (bovine blood, IDP model, changing over time) of 4.59 L/h. For the same compound, the “Ads. capacity polysulfone FX80/F60S” value in series [1] (polysulphone membranes, five experiments) is 31.2 mg. Further, in series [1] (triacetate membrane Ni 21 e, n = 1 experiment), the Adsorption capacity triacetate is on record as 8.6 mg. For the same compound, the protein binding in series [2] was more than 90%.

As for `C[C@@H](O)[C@H]1C(=O)N2C(C(=O)O)=C(S[C@@H]3CN[C@H](CNS(N)(=O)=O)C3)[C@H](C)[C@H]12` [Doripenem, doripenem], the “degradation half-life in stabilizing conditions” value in series [3] is on record as more than 100 h.
